Target: Apoptosis regulator Bcl-2 (Homo sapiens, UniProt P10415)
Assay: FP values were measured as described above.

Apoptosis regulator Bcl-2, sequence (P10415 whole entry): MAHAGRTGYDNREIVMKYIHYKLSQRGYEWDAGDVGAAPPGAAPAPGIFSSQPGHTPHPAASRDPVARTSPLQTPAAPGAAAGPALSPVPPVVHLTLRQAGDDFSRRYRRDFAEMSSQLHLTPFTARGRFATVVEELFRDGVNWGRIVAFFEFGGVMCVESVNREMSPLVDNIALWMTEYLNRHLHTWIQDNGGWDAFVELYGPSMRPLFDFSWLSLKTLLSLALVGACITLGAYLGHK

Question: For `O=C(NS(=O)(=O)c1cc([N+](=O)[O-])c2cnn(CC3CCOCC3)c2c1)c1ccc(N2CCN(CC3=C(c4ccc(Cl)cc4)CC4(CCC4)CC3)CC2)cc1Oc1cnc2[nH]ccc2c1`, which IC50 is on record?
Answer: Its IC50 is 1.6 nM.
